Common to all, as to format: cell-based, Human
Assay [1] relates to MCF7 TP53 KO 5.6 pool. The assay can be described thus: Drug screening, resazurin, TP53 KO 5.6 pool. (The colour change of resazurin is a common sign of viable cells or microbes.)
Assay [2] relates to MCF7 WT Parental pool. Description: Drug screening, resazurin, MCF7 wild type parental pool.
Assay [3] has as its system MCF7 TP53 KO 3.4 pool. Description: Drug screening, resazurin, TP53 KO 3.4 pool.
[4] abbreviates: ten-day drug treatment, 156.25 nM to 10 μM, resazurin fluorescence.

Consider 37 molecules from US20190309272A1, “Genetically Modified Cell Lines Including a TP53 Modification and Methods of Use” (UNIVERSITY OF SOUTH CAROLINA, priority 2018, published 2019).

Counter-ions that a name gives are not always drawn. Like-named read-outs stand apart in the source and are kept apart here.

Take `CO[C@@]12[C@H](COC(N)=O)C3=C(C(=O)C(C)=C(N)C3=O)N1C[C@@H]1N[C@@H]12` [Mitomycin]: in assay [1] (setting [4]), the “TP53 KO 5.6 pool (AUC)” value is recorded as 0.912. Also, the “MCF7 WT Parental pool (AUC)” value in assay [2] (setting [4]) came out at 1.122. The “TP53 KO 3.4 pool (AUC)” value in assay [3] (setting [4]) worked out at 1.003.
Taken in the same sequence, the figures for `Clc1ccc(C(c2ccccc2Cl)C(Cl)Cl)cc1` (stereo not drawn) [Mitotane] were 10.17, 5.932 and 11.01.
On to `COc1nc(N)nc2c1ncn2[C@@H]1O[C@H](CO)[C@@H](O)[C@@H]1O` [Nelarabine], for which the “TP53 KO 5.6 pool (AUC)” value in assay [1] (setting [4]) amounted to 10.08. Also, the “MCF7 WT Parental pool (AUC)” value in assay [2] (setting [4]) is recorded as 8.659. Besides, in assay [3] (setting [4]), the “TP53 KO 3.4 pool (AUC)” value is 11.04.
Taken in the same sequence, the figures for `Cc1cn(-c2cc(NC(=O)c3ccc(C)c(Nc4nccc(-c5cccnc5)n4)c3)cc(C(F)(F)F)c2)cn1` [Nilotinib] were 4.891, 5.834 and 6.967.
Taken in the same sequence, the figures for `O=C(c1cc(Cc2n[nH]c(=O)c3ccccc23)ccc1F)N1CCN(C(=O)C2CC2)CC1` [Olaparib] were 7.433, 5.48 and 8.58.
In the case of `COC(=O)C[C@](O)(CCCC(C)(C)O)C(=O)O[C@@H]1C(OC)=C[C@]23CCCN2CCc2cc4c(cc2[C@H]13)OCO4` [Omacetaxine Mepesuccinate], the “TP53 KO 5.6 pool (AUC)” value in assay [1] (setting [4]) worked out at 0.7717. For the same molecule, in assay [2] (setting [4]), the “MCF7 WT Parental pool (AUC)” value is on record as 0.7749. Moreover, in assay [3] (setting [4]), the “TP53 KO 3.4 pool (AUC)” value came out at 0.7692.
For `C=CC(=O)Nc1cc(Nc2nccc(-c3cn(C)c4ccccc34)n2)c(OC)cc1N(C)CCN(C)C` [Osimertinib], in that order: 4.044, 4.149 and 4.056.
Taken in the same sequence, the figures for `CC(=O)O[C@H]1C(=O)[C@@]2(C)[C@H]([C@H](OC(=O)c3ccccc3)[C@]3(O)C[C@H](OC(=O)[C@H](O)[C@@H](NC(=O)c4ccccc4)c4ccccc4)C(C)=C1C3(C)C)[C@]1(OC(C)=O)CO[C@@H]1C[C@@H]2O` [Paclitaxel] were 1.432, 1.453 and 1.453.
For `Cc1[nH]c2ccccc2c1CCNCc1ccc(/C=C/C(=O)NO)cc1` [Panobinostat], the “TP53 KO 5.6 pool (AUC)” value in assay [1] (setting [4]) is given as 0.5971. In assay [2] (setting [4]), the “MCF7 WT Parental pool (AUC)” value was 0.6418. Also, the “TP53 KO 3.4 pool (AUC)” value in assay [3] (setting [4]) was 0.5862.
Regarding `Cc1ccc(Nc2nccc(N(C)c3ccc4c(C)n(C)nc4c3)n2)cc1S(N)(=O)=O` [Pazopanib Hydrochloride], the “TP53 KO 5.6 pool (AUC)” value in assay [1] (setting [4]) was determined as 6.349. Further, the “MCF7 WT Parental pool (AUC)” value in assay [2] (setting [4]) turned out to be 6.767. Further, the “TP53 KO 3.4 pool (AUC)” value in assay [3] (setting [4]) is 6.259.
In the case of `Nc1nc2[nH]cc(CCc3ccc(C(=O)N[C@@H](CCC(=O)O)C(=O)O)cc3)c2c(=O)[nH]1` [Pemetrexed Disodium Salt Heptahydrate], the “TP53 KO 5.6 pool (AUC)” value in assay [1] (setting [4]) was 2.852. The “MCF7 WT Parental pool (AUC)” value in assay [2] (setting [4]) was determined as 2.501. Further, the “TP53 KO 3.4 pool (AUC)” value in assay [3] (setting [4]) came out at 2.438.
For `O=C(CCBr)N1CCN(C(=O)CCBr)CC1` [Pipobroman], in that order: 7.66, 8.767 and 8.997.
For `c1cc(CN2CCCNCCNCCCNCC2)ccc1CN1CCCNCCNCCCNCC1` [Plerixafor], in that order: 8.524, 9 and 8.893.
Consider `Nc1cccc2c1C(=O)N(C1CCC(=O)NC1=O)C2=O` (stereo not drawn) [Pomalidomide], for which the “TP53 KO 5.6 pool (AUC)” value in assay [1] (setting [4]) amounted to 10.13. Besides, the “MCF7 WT Parental pool (AUC)” value in assay [2] (setting [4]) turned out to be 10.08. The “TP53 KO 3.4 pool (AUC)” value in assay [3] (setting [4]) came to 9.902.
On to `Cc1ccc(C(=O)Nc2ccc(CN3CCN(C)CC3)c(C(F)(F)F)c2)cc1C#Cc1cnc2cccnn12` [Ponatinib], for which the “TP53 KO 5.6 pool (AUC)” value in assay [1] was 3.632. For the same molecule, the “MCF7 WT Parental pool (AUC)” value in assay [2] turned out to be 3.312. Further, in assay [3], the “TP53 KO 3.4 pool (AUC)” value stood at 2.944.
For `C#CCC(Cc1cnc2nc(N)nc(N)c2n1)c1ccc(C(=O)N[C@@H](CCC(=O)O)C(=O)O)cc1` (stereo partly drawn) [Pralatrexate], the “TP53 KO 5.6 pool (AUC)” value in assay [1] (setting [4]) came to 2.86. The “MCF7 WT Parental pool (AUC)” value in assay [2] (setting [4]) is 2.822. The “TP53 KO 3.4 pool (AUC)” value in assay [3] (setting [4]) is listed as 2.774.
For the molecule `CNNCc1ccc(C(=O)NC(C)C)cc1` [Procarbazine Hydrochloride], the “TP53 KO 5.6 pool (AUC)” value in assay [1] (setting [4]) came to 10.7. Further, the “MCF7 WT Parental pool (AUC)” value in assay [2] (setting [4]) was 8.119. Besides, the “TP53 KO 3.4 pool (AUC)” value in assay [3] (setting [4]) was found to be 10.04.
For `O=C(c1ccc(OCCN2CCCCC2)cc1)c1c(-c2ccc(O)cc2)sc2cc(O)ccc12` [Raloxifene], in that order: 6.562, 5.361 and 6.017.
On to `CNC(=O)c1cc(Oc2ccc(NC(=O)Nc3ccc(Cl)c(C(F)(F)F)c3)c(F)c2)ccn1` [Regorafenib], for which, in assay [1] (setting [4]), the “TP53 KO 5.6 pool (AUC)” value is listed as 5.25. Besides, the “MCF7 WT Parental pool (AUC)” value in assay [2] (setting [4]) is listed as 3.995. In addition, the “TP53 KO 3.4 pool (AUC)” value in assay [3] (setting [4]) stood at 5.541.
`C/C=C1\NC(=O)[C@H]2CSSCC/C=C/[C@H](CC(=O)N[C@H](C(C)C)C(=O)N2)OC(=O)[C@H](C(C)C)NC1=O` [Romidepsin]: the “TP53 KO 5.6 pool (AUC)” value in assay [1] was 0.5264. For the same molecule, the “MCF7 WT Parental pool (AUC)” value in assay [2] worked out at 0.5862. In addition, in assay [3], the “TP53 KO 3.4 pool (AUC)” value was 0.6551.
Consider `CN1CCN(C(=O)c2ccc3cc(CCNc4ncnc5ccc(C#N)cc45)ccc3c2)CC1` [SenexinB], for which, in assay [1] (setting [4]), the “TP53 KO 5.6 pool (AUC)” value is 6.954. Besides, the “MCF7 WT Parental pool (AUC)” value in assay [2] (setting [4]) stood at 5.203. The “TP53 KO 3.4 pool (AUC)” value in assay [3] (setting [4]) was 6.869.
Taken in the same sequence, the figures for `CO[C@H]1C[C@@H]2CC[C@@H](C)[C@@](O)(O2)C(=O)C(=O)N2CCCC[C@H]2C(=O)O[C@H]([C@H](C)C[C@@H]2CC[C@@H](O)[C@H](OC)C2)CC(=O)[C@H](C)/C=C(\C)[C@@H](O)[C@@H](OC)C(=O)[C@H](C)C[C@H](C)/C=C/C=C/C=C/1C` [Sirolimus] were 3.106, 2.534 and 2.623.
In the case of `CN(N=O)C(=O)N[C@@H](C=O)[C@@H](O)[C@H](O)[C@H](O)CO` [Streptozocin], the “TP53 KO 5.6 pool (AUC)” value in assay [1] (setting [4]) was 9.912. For the same molecule, in assay [2] (setting [4]), the “MCF7 WT Parental pool (AUC)” value stood at 9.145. For the same molecule, in assay [3] (setting [4]), the “TP53 KO 3.4 pool (AUC)” value was 10.58.
Turning to `CCN(CC)CCNC(=O)c1c(C)[nH]c(/C=C2\C(=O)Nc3ccc(F)cc32)c1C` [Sunitinib], in assay [1] (setting [4]), the “TP53 KO 5.6 pool (AUC)” value is listed as 3.758. Besides, in assay [2] (setting [4]), the “MCF7 WT Parental pool (AUC)” value is 3.556. In addition, the “TP53 KO 3.4 pool (AUC)” value in assay [3] (setting [4]) turned out to be 3.076.
For `CC/C(=C(\c1ccccc1)c1ccc(OCCN(C)C)cc1)c1ccccc1` [TamoxifenCitrate], in that order: 7.798, 7.863 and 5.949.
Consider `Cn1nnc2c(C(N)=O)ncn2c1=O` [Temozolomide], for which the “TP53 KO 5.6 pool (AUC)” value in assay [1] (setting [4]) turned out to be 10.06. The “MCF7 WT Parental pool (AUC)” value in assay [2] (setting [4]) stood at 9.187. Moreover, the “TP53 KO 3.4 pool (AUC)” value in assay [3] (setting [4]) is listed as 9.565.
For `COc1cc([C@@H]2c3cc4c(cc3[C@@H](O[C@@H]3O[C@@H]5CO[C@@H](c6cccs6)O[C@H]5[C@H](O)[C@H]3O)[C@H]3COC(=O)[C@H]23)OCO4)cc(OC)c1O` [Teniposide], in that order: 1.041, 1.342 and 0.9417.
For `O=C1CCC(N2C(=O)c3ccccc3C2=O)C(=O)N1` (stereo not drawn) [Thalidomide], the “TP53 KO 5.6 pool (AUC)” value in assay [1] (setting [4]) is 10.21. In addition, the “MCF7 WT Parental pool (AUC)” value in assay [2] (setting [4]) turned out to be 7.13. Also, the “TP53 KO 3.4 pool (AUC)” value in assay [3] (setting [4]) worked out at 9.18.
On to `S=P(N1CC1)(N1CC1)N1CC1` [Thiotepa], for which, in assay [1], the “TP53 KO 5.6 pool (AUC)” value came out at 5.535. For the same molecule, the “MCF7 WT Parental pool (AUC)” value in assay [2] turned out to be 3.965. Besides, the “TP53 KO 3.4 pool (AUC)” value in assay [3] came out at 5.443.
For the molecule `CC[C@@]1(O)C(=O)OCc2c1cc1n(c2=O)Cc2cc3c(CN(C)C)c(O)ccc3nc2-1` [Topotecan Hydrochloride], the “TP53 KO 5.6 pool (AUC)” value in assay [1] (setting [4]) turned out to be 0.8044. In addition, in assay [2] (setting [4]), the “MCF7 WT Parental pool (AUC)” value was determined as 0.7919. Besides, the “TP53 KO 3.4 pool (AUC)” value in assay [3] (setting [4]) is reported as 0.7814.
Taken in the same sequence, the figures for `CC(=O)Nc1cccc(-n2c(=O)n(C3CC3)c(=O)c3c(Nc4ccc(I)cc4F)n(C)c(=O)c(C)c32)c1` [Trametinib] were 8.533, 7.726 and 6.641.
For `CC1=C(/C=C/C(C)=C/C=C/C(C)=C/C(=O)O)C(C)(C)CCC1` [Tretinoin], in that order: 7.997, 7.394 and 7.809.
In the case of `C1CN1c1nc(N2CC2)nc(N2CC2)n1` [Triethyleneme1amine], the “TP53 KO 5.6 pool (AUC)” value in assay [1] (setting [4]) is on record as 2.319. For the same molecule, the “MCF7 WT Parental pool (AUC)” value in assay [2] (setting [4]) was determined as 2.223. For the same molecule, the “TP53 KO 3.4 pool (AUC)” value in assay [3] (setting [4]) was determined as 2.224.
`Oc1ncc(N(CCCl)CCCl)c(O)n1` [UracilMustard]: the “TP53 KO 5.6 pool (AUC)” value in assay [1] was 9.516. In addition, in assay [2], the “MCF7 WT Parental pool (AUC)” value came to 9.331. In addition, the “TP53 KO 3.4 pool (AUC)” value in assay [3] came to 9.337.
Regarding `CCCCC(=O)OCC(=O)[C@]1(O)Cc2c(O)c3c(c(O)c2[C@@H](O[C@H]2C[C@H](NC(=O)C(F)(F)F)[C@H](O)[C@H](C)O2)C1)C(=O)c1c(OC)cccc1C3=O` [Valrubicin], the “TP53 KO 5.6 pool (AUC)” value in assay [1] (setting [4]) turned out to be 1.05. The “MCF7 WT Parental pool (AUC)” value in assay [2] (setting [4]) worked out at 1.194. The “TP53 KO 3.4 pool (AUC)” value in assay [3] (setting [4]) came to 1.25.
For `COc1cc2c(Nc3ccc(Br)cc3F)ncnc2cc1OCC1CCN(C)CC1` [Vandetanib], in that order: 3.022, 2.871 and 2.831.
In the case of `CCCS(=O)(=O)Nc1ccc(F)c(C(=O)c2c[nH]c3ncc(-c4ccc(Cl)cc4)cc23)c1F` [Vemurafenib], the “TP53 KO 5.6 pool (AUC)” value in assay [1] (setting [4]) is given as 8.365. The “MCF7 WT Parental pool (AUC)” value in assay [2] (setting [4]) is 8.722. The “TP53 KO 3.4 pool (AUC)” value in assay [3] (setting [4]) was found to be 7.987.
